The record followed here is patent US9598401B2, “Substituted heteroaryl compounds and methods of use thereof” (Sunshine Lake Pharma Co., Ltd., priority 2013, dated 2017).

For one test, the target named is serotonin transporter (Rattus norvegicus (Rat), UniProt P31652). Put plainly: Inhibitory effect on [3H]5-HT uptake in rat synaptosome. The class given is biochemical. Conditions: rat brain synaptosomes, 37° C., 15 minutes, 0.1 μCi [3H]5-HT. How it is done: The synaptosomes (150 μg) prepared from the rat brain were incubated at 37° C. for 15 minutes with 0.1 μCi [^3H]5-HT in the absence or presence of the test compound or the reference compound in a buffer solution containing 106.2 mM NaCl, 4.5 mM KCl, 2.25 mM MgSO4, 1.08 mM NaH2PO4, 22.5 mM NaHCO3, 9.9 mM glucose, 9 μM EGTA and 45 μM ascorbic acid (pH 7.4).
Inhibition of serotonin transporter in rat synaptosome was measured by the concentrations of [^3H]5-HT.

A further test deals with dopamine D2S receptor (Homo sapiens (Human), UniProt P14416). As to the kind of experiment: Affinity for human dopamine D2S receptor ([3H]methyl-spiperone binding). Conditions: 0.3 nM [3H]methyl-spiperone, cell membrane homogenates, 22° C., 60 minutes.
The next test has as its target 5-HT1A receptor (Homo sapiens (Human), UniProt P08908). Put plainly: Affinity for human 5-HT1A receptor ([3H]8-OH-DPAT binding, HEK-293 cell homogenates).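 Note: Filter-retained radioactivity counted by scintillation, non-specific binding defined with 10 µM 8-OH-DPAT, Ki derived from percent inhibition of specific radioligand binding versus control.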
The mark [1] stands for this setting: read-out: Ki, binding affinity for 5-HT1A receptor, 0.3 nM [3H]8-OH-DPAT, human HEK-293 cell homogenates, 22° C., 60 minutes.

Each structure is given as a SMILES string. Like-named read-outs stand apart in the source and are kept apart here.

Chain of dopamine D2S receptor (P14416 other isoform, or with tags, fused parts or gaps): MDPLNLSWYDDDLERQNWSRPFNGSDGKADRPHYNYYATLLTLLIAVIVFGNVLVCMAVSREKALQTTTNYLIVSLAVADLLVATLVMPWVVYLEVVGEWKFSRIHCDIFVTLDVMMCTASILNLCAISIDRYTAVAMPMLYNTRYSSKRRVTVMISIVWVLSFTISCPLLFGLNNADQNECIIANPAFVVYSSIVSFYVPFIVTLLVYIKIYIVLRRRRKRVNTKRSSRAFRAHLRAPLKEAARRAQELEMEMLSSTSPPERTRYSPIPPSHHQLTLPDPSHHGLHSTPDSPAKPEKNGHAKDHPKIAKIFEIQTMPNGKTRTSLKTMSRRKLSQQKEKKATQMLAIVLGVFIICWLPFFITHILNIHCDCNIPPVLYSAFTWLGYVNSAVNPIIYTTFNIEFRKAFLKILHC
Chain of serotonin transporter (P31652 whole entry): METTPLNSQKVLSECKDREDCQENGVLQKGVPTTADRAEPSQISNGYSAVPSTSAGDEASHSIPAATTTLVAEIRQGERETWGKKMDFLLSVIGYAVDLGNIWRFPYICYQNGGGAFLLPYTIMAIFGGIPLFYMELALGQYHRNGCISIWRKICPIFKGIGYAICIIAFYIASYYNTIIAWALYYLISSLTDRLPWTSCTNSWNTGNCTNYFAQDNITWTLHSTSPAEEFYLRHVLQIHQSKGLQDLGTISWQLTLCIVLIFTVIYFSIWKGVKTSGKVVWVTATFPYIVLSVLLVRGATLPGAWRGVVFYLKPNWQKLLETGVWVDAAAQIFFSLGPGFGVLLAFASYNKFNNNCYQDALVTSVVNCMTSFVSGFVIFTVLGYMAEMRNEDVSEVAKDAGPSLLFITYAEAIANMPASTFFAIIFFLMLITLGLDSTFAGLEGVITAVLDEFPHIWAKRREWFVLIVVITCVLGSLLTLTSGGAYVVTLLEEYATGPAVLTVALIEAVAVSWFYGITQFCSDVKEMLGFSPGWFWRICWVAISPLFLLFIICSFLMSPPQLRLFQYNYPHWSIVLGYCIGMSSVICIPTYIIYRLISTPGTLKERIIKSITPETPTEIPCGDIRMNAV
Chain of 5-HT1A receptor (P08908 whole entry): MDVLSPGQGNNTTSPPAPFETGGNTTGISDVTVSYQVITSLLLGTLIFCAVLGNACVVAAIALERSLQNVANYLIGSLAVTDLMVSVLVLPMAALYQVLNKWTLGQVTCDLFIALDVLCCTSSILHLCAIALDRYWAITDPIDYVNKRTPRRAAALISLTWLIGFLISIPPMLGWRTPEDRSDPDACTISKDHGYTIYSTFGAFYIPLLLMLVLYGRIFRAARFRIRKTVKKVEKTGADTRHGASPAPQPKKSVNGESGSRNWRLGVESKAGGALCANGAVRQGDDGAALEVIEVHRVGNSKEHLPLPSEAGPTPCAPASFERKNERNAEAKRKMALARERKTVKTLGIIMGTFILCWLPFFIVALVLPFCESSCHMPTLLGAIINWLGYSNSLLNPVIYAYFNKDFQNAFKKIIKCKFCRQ
Description for 5-HT1A receptor: The non-specific binding value was determined by incubating the same mixture in the presence of 10 μM 8-OH-DPAT, which was used as the standard reference compound and tested in each experiment at several concentrations to obtain a competition curve.
Following the incubation, the samples were filtered rapidly under vacuum through glass fiber filter (GF/B, Packard) presoaked with 0.3% PEI and rinsed several times with ice-cold 50 mM Tris-HCl using a 96-sample cell harvester (Unifilter, Packard). The filters were dried and the retained radioactivity was measured in a scintillation counter (Topcount, Packard) using a scintillation cocktail (Microscint 0, Packard). The experimental results were expressed as a percent inhibition of the control radioligand specific binding, and Ki was the inhibition constant.
Description for dopamine D2S receptor: Cell membrane homogenates (24 μg protein) were incubated at 22° C. for 60 minutes with 0.3 nM [3H]methyl-spiperone in the absence or presence of the test compound in a buffer solution containing 50 mM Tris-HCl (pH 7.4), 120 mM NaCl, 5 mM KCl, 5 mM MgCl2 and 1 mM EDTA.
The non-specific binding value was determined by incubating the same mixture in the presence of 10 μM (+)butaclamol.
Following the incubation, the samples were filtered rapidly under vacuum through glass fiber filter (GF/B, Packard) presoaked with 0.3% PEI and rinsed several times with ice-cold 50 mM Tris-HCl using a 96-sample cell harvester (Unifilter, Packard). The filters were dried and the retained radioactivity was measured in a scintillation counter (Topcount, Packard) using a scintillation cocktail (Microscint 0, Packard).
The experimental results were expressed as a percent inhibition of the control radioligand specific binding, and Ki was the inhibition constant. The standard reference compound was (+)butaclamol, which was tested in each experiment at several concentrations to obtain a competition curve from which its IC50 was calculated, and then Ki value was calculated by ChengPrusoff equation.

`COc1cc(OC)nc(N2CCN(CCCCc3c[nH]c4ccc(F)cc34)CC2)n1` [Example 4, 3-(4-(4-(4,6-Dimethoxypyrimidin-2-yl)piperazin-1-yl)butyl)-5-fluoro-1H-indole] registered a half-inhibitory concentration (IC50) against serotonin transporter of 6.4 nM. Moreover, the Ki on dopamine D2S receptor came out at 110 nM; on 5-HT1A receptor (setting [1]), 2.8 nM.
Consider `COc1cc(OC)nc(N2CCN(CCCc3c[nH]c4ccc(C#N)cc34)CC2)n1` [Example 10, 3-(3-(4-(4,6-Dimethoxypyrimidin-2-yl)piperazin-1-yl)propyl)-1H-indole-5-carbonitrile], for which, at serotonin transporter, 3.6 nM corresponded to half-maximal inhibition (IC50). The results for the Ki at dopamine D2S receptor and at 5-HT1A receptor (setting [1]) were 200 nM and 1.3 nM, respectively.
In the same order, the values of `Cc1cc(C)nc(N2CCN(CCCc3c[nH]c4ccccc34)CC2)n1` [Example 16, 3-(3-(4-(4,6-Dimethylpyrimidin-2-yl)piperazin-1-yl)propyl)-1H-indole] are 53 nM, 110 nM and 4.1 nM.
Regarding `N#Cc1ccc2[nH]cc(CCCN3CCN(c4nccc(C#N)n4)CC3)c2c1` [Example 26, 3-(3-(4-(4-Cyanopyrimidin-2-yl)piperazin-1-yl)propyl)-1H-indole-5-carbonitrile], the IC50 at serotonin transporter amounted to 2.6 nM. Further, the inhibition constant Ki on dopamine D2S receptor came to 190 nM; on 5-HT1A receptor (setting [1]), 8 nM.
The compound `NC(=O)c1ccnc(N2CCN(CCCCc3c[nH]c4ccc(F)cc34)CC2)n1` [Example 27, 2-(4-(4-(5-Fluoro-1H-indol-3-yl)butyl)piperazin-1-yl)pyrimidine-4-carboxamide] gave an IC50 against serotonin transporter of 2.7 nM. The Ki at dopamine D2S receptor was > 1000 nM; at 5-HT1A receptor (setting [1]), 60 nM.
On serotonin transporter, `N#Cc1ccc2[nH]cc(CCCCN3CCN(c4nccc(C(N)=O)n4)CC3)c2c1` [Example 28, 2-(4-(4-(5-Cyano-1H-indol-3-yl)butyl)piperazin-1-yl)pyrimidine-4-carboxamide] displayed an IC50 of 1 nM. The values for the inhibition constant (Ki) at dopamine D2S receptor and on 5-HT1A receptor (setting [1]) were 310 nM and 10 nM, respectively.
Taken in the same sequence, the figures for `NC(=O)c1ccnc(N2CCN(CCCc3c[nH]c4ccc(F)cc34)CC2)n1` [Example 29, 2-(4-(3-(5-Fluoro-1H-indol-3-yl)propyl)piperazin-1-yl)pyrimidine-4-carboxamide] were 1.4 nM, 230 nM and 12 nM.
In the same order, the values of `N#Cc1ccc2[nH]cc(CCCN3CCN(c4nccc(C(N)=O)n4)CC3)c2c1` [Example 30, 2-(4-(3-(5-Cyano-1H-indol-3-yl)propyl)piperazin-1-yl)pyrimidine-4-carboxamide] are 0.75 nM, > 1000 nM and 14 nM.
For the compound `N#Cc1ccc2[nH]cc(CCCCN3CCN(c4nccc(C(F)(F)F)n4)CC3)c2c1` [Example 32, 3-(4-(4-(4-(Trifluoromethyl)pyrimidin-2-yl)piperazin-1-yl)butyl)-1H-indole-5-carbonitrile], the IC50 against serotonin transporter is 10 nM. Further, the Ki at 5-HT1A receptor (setting [1]) was determined as 0.7 nM.
In the same order, the values of `Fc1ccc2[nH]cc(CCCN3CCN(c4nccc(C(F)(F)F)n4)CC3)c2c1` [Example 33, 5-Fluoro-3-(3-(4-(4-(trifluoromethyl)pyrimidin-2-yl)piperazin-1-yl)propyl)-1H-indole] are 11 nM and 1 nM.
`N#Cc1ccc2[nH]cc(CCCN3CCN(c4nccc(C(F)(F)F)n4)CC3)c2c1` [Example 34, 3-(3-(4-(4-(Trifluoromethyl)pyrimidin-2-yl)piperazin-1-yl)propyl)-1H-indole-5-carbonitrile] came in with an IC50 on serotonin transporter of 5.9 nM. The compound further gave an inhibition constant (Ki) at 5-HT1A receptor of 0.2 nM.
The compound `CCOC(=O)c1sc(N2CCN(CCCCc3c[nH]c4ccc(F)cc34)CC2)nc1C` [Example 37, Ethyl 2-(4-(4-(5-fluoro-1H-indol-3-yl)butyl)piperazin-1-yl)-4-methylthiazole-5-carboxylate] registered an IC50 against serotonin transporter of 7 nM. In addition, the Ki worked out at 130 nM on dopamine D2S receptor and 5.5 nM on 5-HT1A receptor (setting [1]).
For `CCOC(=O)c1sc(N2CCN(CCCc3c[nH]c4ccc(F)cc34)CC2)nc1C` [Example 38, Ethyl 2-(4-(3-(5-fluoro-1H-indol-3-yl)propyl)piperazin-1-yl)-4-methylthiazole-5-carboxylate], the IC50 against serotonin transporter turned out to be 11 nM. Also, the Ki at dopamine D2S receptor is 270 nM; at 5-HT1A receptor (setting [1]), 0.27 nM.
`CCOC(=O)c1sc(N2CCN(CCCCc3c[nH]c4ccc(C#N)cc34)CC2)nc1C` [Example 39, Ethyl 2-(4-(4-(5-cyano-1H-indol-3-yl)butyl)piperazin-1-yl)-4-methylthiazole-5-carboxylate] came in with an IC50 against serotonin transporter of 2.9 nM. Besides, at 5-HT1A receptor (setting [1]), the inhibitory constant (Ki) was determined as 0.79 nM.
As for `CCOC(=O)c1sc(N2CCN(CCCc3c[nH]c4ccc(C#N)cc34)CC2)nc1C` [Example 40, Ethyl 2-(4-(3-(5-cyano-1H-indol-3-yl)propyl)piperazin-1-yl)-4-methylthiazole-5-carboxylate], the IC50 at serotonin transporter was 3.5 nM. Further, the Ki on dopamine D2S receptor is > 1000 nM; on 5-HT1A receptor (setting [1]), 0.3 nM.
In the same order, the values of `Cc1nc(N2CCN(CCCCc3c[nH]c4ccc(F)cc34)CC2)sc1C(N)=O` [Example 41, 2-(4-(4-(5-Fluoro-1H-indol-3-yl)butyl)piperazin-1-yl)-4-methylthiazole-5-carboxamide] are 2.4 nM, 140 nM and 23 nM.
At serotonin transporter, `Cc1nc(N2CCN(CCCc3c[nH]c4ccc(F)cc34)CC2)sc1C(N)=O` [Example 42, 2-(4-(3-(5-Fluoro-1H-indol-3-yl)propyl)piperazin-1-yl)-4-methylthiazole-5-carboxamide] returned an IC50 of 5.3 nM. Besides, the figures for the Ki at dopamine D2S receptor and on 5-HT1A receptor (setting [1]) were 310 nM and 4.5 nM, respectively.
Consider `Cc1nc(N2CCN(CCCCc3c[nH]c4ccc(C#N)cc34)CC2)sc1C(N)=O` [Example 43, 2-(4-(4-(5-Cyano-1H-indol-3-yl)butyl)piperazin-1-yl)-4-methylthiazole-5-carboxamide], for which the IC50 against serotonin transporter was determined as 0.85 nM. The inhibition constant Ki on 5-HT1A receptor (setting [1]) was found to be 12 nM.
In turn, `Cc1nc(N2CCN(CCCc3c[nH]c4ccc(C#N)cc34)CC2)sc1C(N)=O` [Example 44, 2-(4-(3-(5-Cyano-1H-indol-3-yl)propyl)piperazin-1-yl)-4-methylthiazole-5-carboxamide] showed an IC50 on serotonin transporter of 4.3 nM. Moreover, the figures for the Ki at dopamine D2S receptor and on 5-HT1A receptor (setting [1]) were > 1000 nM and 3.7 nM, respectively.
As to `Cc1nc(N2CCN(CCCCc3c[nH]c4ccc(F)cc34)CC2)sc1C#N` [Example 45, 2-(4-(4-(5-Fluoro-1H-indol-3-yl)butyl)piperazin-1-yl)-4-methylthiazole-5-carbonitrile], at serotonin transporter, the IC50 was 8.3 nM. The Ki at dopamine D2S receptor was > 1000 nM; on 5-HT1A receptor (setting [1]), 14 nM.
On serotonin transporter, `Cc1nc(N2CCN(CCCc3c[nH]c4ccc(F)cc34)CC2)sc1C#N` [Example 46, 2-(4-(3-(5-Fluoro-1H-indol-3-yl)propyl)piperazin-1-yl)-4-methylthiazole-5-carbonitrile] returned an IC50 of 18 nM. Besides, the Ki at dopamine D2S receptor was > 1000 nM; at 5-HT1A receptor (setting [1]) it was 4.2 nM.
In the same order, the values of `Cc1nc(N2CCN(CCCCc3c[nH]c4ccc(C#N)cc34)CC2)sc1C#N` [Example 47, 2-(4-(4-(5-Cyano-1H-indol-3-yl)butyl)piperazin-1-yl)-4-methylthiazole-5-carbonitrile] are 1.5 nM, 130 nM and 5 nM.
With `Cc1nc(N2CCN(CCCc3c[nH]c4ccc(C#N)cc34)CC2)sc1C#N` [Example 48, 2-(4-(3-(5-Cyano-1H-indol-3-yl)propyl)piperazin-1-yl)-4-methylthiazole-5-carbonitrile], it took 7.7 nM to reach half-maximal inhibition against serotonin transporter (IC50). In addition, on 5-HT1A receptor (setting [1]), the Ki is 2.6 nM.

One may read the IC50 as the point on the concentration scale where inhibition reaches its midpoint. High values mean weaker potency in that assay, low ones greater potency in that assay. Usually Ki stands for the dissociation constant of the complex between target and ligand, obtained from inhibition or displacement.
